Assay results as given in article PMC4183595, “Study on the Main Components Interaction from Flos Lonicerae and Fructus Forsythiae and Their Dissolution In Vitro and Intestinal Absorption in Rats” (PLoS ONE, 2014).
Where two headings read alike, the source gives them in different places.

Columns and labels:
Caco-2 cells = test: In vitro Caco-2 monolayer model, apical to basolateral transport (P app); format: in vitro ADME, human; settings: for P app in product C group, % compared to that in product A group / P app in product C group, % compared with that in product B group: Caco-2 monolayer, HBSS pH 6.0, apical to basolateral
Protocol: Caco-2 cells were cultured in high glucose DMEM with 10% fetal bovine serum, 1% nonessential amino acids. Cells were cultured in a humidified atmosphere of 5% CO2 at 37°C. After reaching 80% confluens, Caco-2 cells were harvested with 0.05% trypsin-EDTA solution and seeded on top of CC inserts in 6-well plates, which has a surface area of 4.2 cm^2, at a density of 1.0×10^5 cells/cm^2. The protocols for cell culture in Transwell inserts were similar to those described previously.
Hank’s balanced salt solution (HBSS) was used as the transport buffer for the transport study in Caco-2 cells monolayer model. It was prepared by dissolving 9.5 grams of commercial available HBSS powder in 1000 mL water.
Cell culture experiments were described previously. Briefly, after culture medium was aspirated, the cell monolayers were washed three times with blank HBSS. […] The monolayers were incubated with the blank HBSS for 1 h with 37°C. Thereafter the incubation medium was aspirated. Afterwards, a solution containing the compound was loaded onto the apical side. The amounts of transported compound were measured as a function of time. […] The samples were taken at 0, 1, 2, 3 and 4 h after incubation. At the end of the transport experiment, integrity of the monolayer was monitored by TEER value.

[1] = Rat in vivo pharmacokinetics study after oral administration of product A, B or C; set-up: species or system Male Sprague-Dawley (SD) rats; AUC 0→t in product C group, increased to % compared to that in product A or B groups: concentration or dose not given beside the values; settings: for AUC(0-inf) / MRT / Tmax / half-life / Cmax / AUC(0-t): male, Sprague-Dawley, rat, plasma; for AUC(0-inf) / MRT / Tmax / half-life / Cmax: po, 10 mL·kg^−1, rats; for AUC(0-inf) / MRT / Tmax / half-life / AUC(0-t): 10 mL·kg^−1; for half-life: read-out: T 1/2z; for Cmax: mean±SD; for bioavailability in product C group compared with that in product A group / bioavailability in product C group compared with that in product B group / AUC(0-t) / AUC 0→t in product C group, increased to % compared to that in product A or B groups: rats; for bioavailability in product C group compared with that in product A group / bioavailability in product C group compared with that in product B group / AUC 0→t in product C group, increased to % compared to that in product A or B groups: oral; for AUC(0-t): oral product C group; for AUC 0→t in product C group, increased to % compared to that in product A or B groups: product C versus product A or B
Protocol: Product A (extract mixed with FLJ extract and water, (1∶1, v / v )), product B (extract mixed with FF extract and water, (1∶1, v / v )) and product C (extract mixed with FLJ and FF extracts, (1∶1, v / v )) were given to oral administration to rats, respectively.
Male SD rats (∼250 g) were kept in an environmentally controlled breeding room (temperature: 20±2°C, relative humidity: 60±5%) for 1 week. […] The rats were randomly divided into three groups with no less than six rats in each group to receive various administrations at a single oral dose (10 mL·kg^−1) by gastric gavage. […] Subsequently, plasma was prepared by centrifugation at 1,816×g, 4°C for 7 min, and immediately analyzed or stored at −70°C for further analysis.
The main pharmacokinetic parameters including the peak plasma concentration (C max), the time to C max (T max), the AUC from 0 to infinity (AUC 0–∞), the AUC form 0 to time (AUC 0–t), mean residence time (MRT), and terminal elimination half-life (T 1/2z) were calculated by the non-compartmental analysis of plasma concentration vs. time data using the “DAS 2.1.1” software (Mathematical Pharmacology Professional Committee of China, Shanghai, China).

[2] = single oral dose 10 mL·kg^−1 of product A (FLJ extract and water 1:1)
[3] = single oral dose 10 mL·kg^−1 of product B (FF extract and water 1:1)
[4] = single oral dose 10 mL·kg^−1 of product C (FLJ and FF extracts 1:1)

C[C@@H]1O[C@@H](OC[C@H]2O[C@@H](Oc3c(-c4ccc(O)c(O)c4)oc4cc(O)cc(O)c4c3=O)[C@H](O)[C@@H](O)[C@@H]2O)[C@H](O)[C@H](O)[C@H]1O [Rutin]
P app in product C group, % compared to that in product A group (Caco-2 cells): 213%
P app in product C group, % compared with that in product B group (Caco-2 cells): 210%
AUC(0-inf) ([1]; oral product A): 10.3 ng·h/mL
MRT ([1]; oral product A): 5.02 h
Tmax ([1]; oral product A): 0.167 h
half-life ([1]; oral product A): 7.93 ± 0.837 h
AUC(0-inf) ([1]; oral product B): 30.5 ng·h/mL
MRT ([1]; oral product B): 4.35 h
half-life ([1]; oral product B): 8.17 ± 1.55 h
AUC(0-inf) ([1]; oral product C): 22.8 ng·h/mL
MRT ([1]; oral product C): 4.88 h
Tmax ([1]; oral product C): 0.167 h
half-life ([1]; oral product C): 7.55 ± 0.613 h
Cmax [1, 2]: 4.08 ± 1.99 ng/mL
Cmax [1, 3]: 14.6 ± 1.65 ng/mL
Cmax [1, 4]: 19.8 ± 3.93 ng/mL
bioavailability in product C group compared with that in product A group [1]: significantly higher
bioavailability in product C group compared with that in product B group [1]: no significant difference

COC(=O)C1=CO[C@@H](O[C@@H]2O[C@H](CO)[C@@H](O)[C@H](O)[C@H]2O)[C@@H]2[C@@H](C)[C@@H](O)C[C@H]12 [Loganin]
P app in product C group, % compared to that in product A group (Caco-2 cells): 211%
AUC(0-t) [1]: 108 ng·h/mL
AUC(0-inf) ([1]; oral product A): 92.9 ng·h/mL
MRT ([1]; oral product A): 5.82 h
Tmax ([1]; oral product A): 0.35 h
half-life ([1]; oral product A): 2.07 ± 0.205 h
AUC(0-inf) ([1]; oral product C): 140 ng·h/mL
MRT ([1]; oral product C): 7.83 h
Tmax ([1]; oral product C): 0.267 h
half-life ([1]; oral product C): 7.33 ± 0.273 h
Cmax [1, 2]: 28 ± 4.93 ng/mL
Cmax [1, 4]: 54.7 ± 8.63 ng/mL
AUC 0→t in product C group, increased to % compared to that in product A or B groups [1]: 121%

O=C(O)[C@]1(O)C[C@@H](O)[C@@H](O)[C@H](O)C1 [Quinic acid]
P app in product C group, % compared to that in product A group (Caco-2 cells): 301%
P app in product C group, % compared with that in product B group (Caco-2 cells): 24.0%
MRT ([1]; oral product A): 3.98 h
Tmax ([1]; oral product A): 0.35 h
half-life ([1]; oral product A): 3.82 ± 0.28 h
MRT ([1]; oral product B): 4.5 h
Tmax ([1]; oral product B): 0.3 h
half-life ([1]; oral product B): 4.1 ± 0.628 h
MRT ([1]; oral product C): 7.35 h
Tmax ([1]; oral product C): 0.167 h
half-life ([1]; oral product C): 5.5 ± 1.27 h
Cmax [1, 3]: 358 ± 157 ng/mL
bioavailability in product C group compared with that in product A group [1]: no significant difference
bioavailability in product C group compared with that in product B group [1]: higher significantly

O=c1cc(-c2ccc(O)c(O)c2)oc2cc(O[C@@H]3O[C@H](CO)[C@@H](O)[C@H](O)[C@H]3O)cc(O)c12 [Luteoloside]
P app in product C group, % compared to that in product A group (Caco-2 cells): 174%
AUC(0-t) [1]: 4.76 ng·h/mL
AUC(0-inf) ([1]; oral product A): 2.97 ng·h/mL
Tmax ([1]; oral product A): 0.167 h
half-life ([1]; oral product A): 6.38 ± 0.22 h
AUC(0-inf) ([1]; oral product C): 5 ng·h/mL
Tmax ([1]; oral product C): 0.167 h
half-life ([1]; oral product C): 9.65 ± 1.43 h
Cmax [1, 2]: 1.26 ± 0.655 ng/mL
Cmax [1, 4]: 2.48 ± 1.34 ng/mL
AUC 0→t in product C group, increased to % compared to that in product A or B groups [1]: 137%

C[C@@H]1O[C@@H](O[C@H]2[C@H](O[C@H]3CC[C@@]4(C)[C@@H](CC[C@]5(C)[C@@H]4CC=C4[C@@H]6CC(C)(C)CC[C@]6(C(=O)O[C@@H]6O[C@H](CO[C@@H]7O[C@H](CO)[C@@H](O)[C@H](O)[C@H]7O)[C@@H](O)[C@H](O)[C@H]6O)CC[C@]45C)[C@]3(C)CO)OC[C@H](O)[C@@H]2O)[C@H](O)[C@H](O)[C@H]1O [dipsacoside B]
absorption into Caco-2 cells (Caco-2 cells; dipsacoside B, macranthoidin B in product C or A group, arctiin in product C or B group): might not be absorbed well

O=c1c(O[C@@H]2O[C@H](CO)[C@H](O)[C@H](O)[C@H]2O)c(-c2ccc(O)c(O)c2)oc2cc(O)cc(O)c12 [Hyperoside]
P app in product C group, % compared to that in product A group (Caco-2 cells): 129%
P app in product C group, % compared with that in product B group (Caco-2 cells): 195%
AUC(0-inf) ([1]; oral product A): 9.89 ng·h/mL
MRT ([1]; oral product A): 7.27 h
Tmax ([1]; oral product A): 0.167 h
half-life ([1]; oral product A): 6.83 ± 1.63 h
AUC(0-inf) ([1]; oral product B): 10.4 ng·h/mL
MRT ([1]; oral product B): 6.82 h
half-life ([1]; oral product B): 6.68 ± 0.487 h
AUC(0-inf) ([1]; oral product C): 24.6 ng·h/mL
MRT ([1]; oral product C): 6.45 h
Tmax ([1]; oral product C): 0.167 h
half-life ([1]; oral product C): 7.05 ± 0.688 h
Cmax [1, 2]: 5.25 ± 0.859 ng/mL
Cmax [1, 3]: 9.68 ± 4.39 ng/mL
Cmax [1, 4]: 22.1 ± 1.9 ng/mL
bioavailability in product C group compared with that in product A group [1]: significantly higher
bioavailability in product C group compared with that in product B group [1]: significantly higher
